In ChEMBL document CHEMBL4340527, “Discovery of potent anti-inflammatory 4-(4,5,6,7-tetrahydrofuro[3,2-c]pyridin-2-yl) pyrimidin-2-amines for use as Janus kinase inhibitors” (Bioorg Med Chem, 2019):

Legend:
[1] = target: Tyrosine-protein kinase JAK2 (Homo sapiens, UniProt O60674)
Description: Inhibition of JAK2 (unknown origin) using TK-substrate-biotin as substrate preincubated for 5 mins followed by substrate addition and measured by 30 mins by HTRF assay

[2] = target: T1, Tyrosine-protein kinase JAK3 (Homo sapiens, UniProt P52333)
T1 sequence (P52333 whole entry): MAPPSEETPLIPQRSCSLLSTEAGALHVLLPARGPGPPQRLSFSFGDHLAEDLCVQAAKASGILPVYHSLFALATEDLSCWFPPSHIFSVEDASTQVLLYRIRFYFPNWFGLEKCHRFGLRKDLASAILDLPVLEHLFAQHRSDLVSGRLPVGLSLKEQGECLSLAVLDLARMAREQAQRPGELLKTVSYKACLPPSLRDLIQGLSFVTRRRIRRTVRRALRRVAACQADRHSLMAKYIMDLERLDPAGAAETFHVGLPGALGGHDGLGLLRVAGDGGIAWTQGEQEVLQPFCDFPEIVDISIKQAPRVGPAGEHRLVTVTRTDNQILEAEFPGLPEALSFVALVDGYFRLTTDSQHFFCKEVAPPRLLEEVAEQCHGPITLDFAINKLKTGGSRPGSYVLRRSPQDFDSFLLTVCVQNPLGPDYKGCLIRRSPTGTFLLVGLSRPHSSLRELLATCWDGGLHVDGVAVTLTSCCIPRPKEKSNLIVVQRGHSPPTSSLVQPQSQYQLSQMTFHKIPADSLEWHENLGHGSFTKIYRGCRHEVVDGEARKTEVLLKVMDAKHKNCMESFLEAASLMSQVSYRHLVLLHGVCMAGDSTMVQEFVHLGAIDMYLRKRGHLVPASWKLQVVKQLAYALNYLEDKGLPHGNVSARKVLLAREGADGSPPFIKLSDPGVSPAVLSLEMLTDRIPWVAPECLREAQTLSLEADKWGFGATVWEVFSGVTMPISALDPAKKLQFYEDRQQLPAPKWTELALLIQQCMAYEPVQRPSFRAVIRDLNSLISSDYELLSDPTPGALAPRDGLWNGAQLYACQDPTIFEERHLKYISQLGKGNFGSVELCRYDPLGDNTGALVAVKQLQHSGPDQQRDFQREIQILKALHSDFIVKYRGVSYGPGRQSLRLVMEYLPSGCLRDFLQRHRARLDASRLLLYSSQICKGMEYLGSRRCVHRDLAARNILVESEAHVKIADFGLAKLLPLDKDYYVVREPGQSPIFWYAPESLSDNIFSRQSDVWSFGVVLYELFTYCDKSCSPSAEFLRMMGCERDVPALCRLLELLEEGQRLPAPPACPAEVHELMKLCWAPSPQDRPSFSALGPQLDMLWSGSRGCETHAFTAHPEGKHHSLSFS
Description: Inhibition of JAK3 (unknown origin) using TK-substrate-biotin as substrate preincubated for 5 mins followed by substrate addition and measured by 30 mins by HTRF assay

[3] = Oral bioavailability in Sprague-Dawley rat at 10 mg/kg after 2 mins to 24 hrs by LC-MS/MS analysis; format: ADME, organism-based; conditions: in vivo
[4] = target: Tyrosine-protein kinase JAK1 (Homo sapiens, UniProt P23458)
Description: Inhibition of JAK1 (unknown origin) using TK-substrate-biotin as substrate preincubated for 5 mins followed by substrate addition and measured by 30 mins by HTRF assay

in vivo [5] = conditions: Sprague-Dawley, rat, po, 10 mg/kg
hERG (KCNH2) [6] = target: T2, hERG (KCNH2) (Homo sapiens, UniProt Q12809); experiment: Inhibition of human ERG at 0.3 uM relative to control
[7] = rat, in vivo, po, 10 mg/kg
hERG (KCNH2) [8] = target: T2, hERG (KCNH2); experiment: Inhibition of human ERG at 30 uM relative to control
in vivo [9] = conditions: rat, po, 5 mg/kg
in vivo [10] = conditions: Sprague-Dawley, rat, po, 10 mg/kg; remark: listed apart in the source
in vivo [11] = conditions: Sprague-Dawley, rat, po, 10 mg/kg; remark: listed apart in the source
hERG (KCNH2) [12] = target: T2, hERG (KCNH2); experiment: Inhibition of human ERG at 3 uM relative to control
[13] = Half life in Sprague-Dawley rat at 2.5 mg/kg, iv after 2 mins to 24 hrs by LC-MS/MS analysis; format: ADME, organism-based; conditions: in vivo
[14] = Volume of distribution in Sprague-Dawley rat at 2.5 mg/kg, iv after 2 mins to 24 hrs by LC-MS/MS analysis; format: ADME, organism-based; conditions: in vivo, read-out: Vz
Rattus norvegicus [15] = format: functional
[16] = AUC (0 to t) in Sprague-Dawley rat at 2.5 mg/kg, iv after 2 mins to 24 hrs by LC-MS/MS analysis; format: ADME, organism-based; parameters: time 0.033-24 hr, dose 2.5 mg/kg, route intravenous; conditions: in vivo
[17] = target: Non-receptor tyrosine-protein kinase TYK2 (Homo sapiens, UniProt P29597)
Description: Inhibition of Tyk2 (unknown origin)

in vivo [18] = conditions: Sprague-Dawley, rat, po, 10 mg/kg; remark: listed apart in the source
in vivo [19] = conditions: Sprague-Dawley, rat, po, 10 mg/kg; remark: listed apart in the source
Rattus norvegicus [20] = format: functional; remark: listed apart in the source
[21] = target: Voltage-gated inwardly rectifying potassium channel KCNH2 (Homo sapiens, UniProt Q12809); experiment: Inhibition of human ERG
[22] = Cmax in Sprague-Dawley rat at 2.5 mg/kg, iv after 2 mins to 24 hrs by LC-MS/MS analysis; format: ADME, organism-based; parameters: dose 2.5 mg/kg, route intravenous; conditions: in vivo
[23] = MRT (0 to t) in Sprague-Dawley rat at 2.5 mg/kg, iv after 2 mins to 24 hrs by LC-MS/MS analysis; format: ADME, organism-based; conditions: in vivo
[24] = Clearance in Sprague-Dawley rat at 2.5 mg/kg, iv after 2 mins to 24 hrs by LC-MS/MS analysis; format: ADME, organism-based; conditions: in vivo

T2 sequence (Q12809 whole entry): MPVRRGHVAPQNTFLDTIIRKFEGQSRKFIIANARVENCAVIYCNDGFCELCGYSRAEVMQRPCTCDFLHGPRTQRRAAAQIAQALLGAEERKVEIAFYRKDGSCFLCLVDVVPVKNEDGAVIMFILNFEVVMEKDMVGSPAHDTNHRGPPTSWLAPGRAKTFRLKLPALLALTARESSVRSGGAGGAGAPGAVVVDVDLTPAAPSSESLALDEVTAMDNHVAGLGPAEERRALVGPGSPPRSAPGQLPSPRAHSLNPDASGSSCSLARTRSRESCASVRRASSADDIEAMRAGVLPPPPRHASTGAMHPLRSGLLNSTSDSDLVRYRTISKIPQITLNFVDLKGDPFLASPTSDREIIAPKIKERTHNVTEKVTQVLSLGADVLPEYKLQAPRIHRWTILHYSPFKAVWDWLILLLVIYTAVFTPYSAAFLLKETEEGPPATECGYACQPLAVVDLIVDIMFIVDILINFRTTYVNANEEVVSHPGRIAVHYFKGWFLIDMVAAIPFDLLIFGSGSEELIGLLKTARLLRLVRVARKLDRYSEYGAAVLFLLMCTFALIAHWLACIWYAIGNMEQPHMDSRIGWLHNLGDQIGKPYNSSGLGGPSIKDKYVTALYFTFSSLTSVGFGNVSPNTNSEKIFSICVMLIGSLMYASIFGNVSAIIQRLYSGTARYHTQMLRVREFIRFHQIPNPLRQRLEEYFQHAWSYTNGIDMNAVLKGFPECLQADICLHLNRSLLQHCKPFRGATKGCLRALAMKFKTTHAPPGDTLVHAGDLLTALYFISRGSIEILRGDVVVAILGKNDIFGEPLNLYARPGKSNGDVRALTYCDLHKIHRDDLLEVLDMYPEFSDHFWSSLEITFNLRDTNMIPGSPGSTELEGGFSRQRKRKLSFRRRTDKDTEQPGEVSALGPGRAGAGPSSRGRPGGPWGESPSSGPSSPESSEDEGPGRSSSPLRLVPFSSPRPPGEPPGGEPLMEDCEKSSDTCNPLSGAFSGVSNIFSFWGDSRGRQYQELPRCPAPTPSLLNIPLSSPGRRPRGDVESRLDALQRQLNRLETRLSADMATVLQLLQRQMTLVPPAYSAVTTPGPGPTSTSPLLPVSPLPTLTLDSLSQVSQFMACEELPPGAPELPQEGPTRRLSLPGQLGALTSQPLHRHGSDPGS
Tyrosine-protein kinase JAK2, sequence (O60674 whole entry): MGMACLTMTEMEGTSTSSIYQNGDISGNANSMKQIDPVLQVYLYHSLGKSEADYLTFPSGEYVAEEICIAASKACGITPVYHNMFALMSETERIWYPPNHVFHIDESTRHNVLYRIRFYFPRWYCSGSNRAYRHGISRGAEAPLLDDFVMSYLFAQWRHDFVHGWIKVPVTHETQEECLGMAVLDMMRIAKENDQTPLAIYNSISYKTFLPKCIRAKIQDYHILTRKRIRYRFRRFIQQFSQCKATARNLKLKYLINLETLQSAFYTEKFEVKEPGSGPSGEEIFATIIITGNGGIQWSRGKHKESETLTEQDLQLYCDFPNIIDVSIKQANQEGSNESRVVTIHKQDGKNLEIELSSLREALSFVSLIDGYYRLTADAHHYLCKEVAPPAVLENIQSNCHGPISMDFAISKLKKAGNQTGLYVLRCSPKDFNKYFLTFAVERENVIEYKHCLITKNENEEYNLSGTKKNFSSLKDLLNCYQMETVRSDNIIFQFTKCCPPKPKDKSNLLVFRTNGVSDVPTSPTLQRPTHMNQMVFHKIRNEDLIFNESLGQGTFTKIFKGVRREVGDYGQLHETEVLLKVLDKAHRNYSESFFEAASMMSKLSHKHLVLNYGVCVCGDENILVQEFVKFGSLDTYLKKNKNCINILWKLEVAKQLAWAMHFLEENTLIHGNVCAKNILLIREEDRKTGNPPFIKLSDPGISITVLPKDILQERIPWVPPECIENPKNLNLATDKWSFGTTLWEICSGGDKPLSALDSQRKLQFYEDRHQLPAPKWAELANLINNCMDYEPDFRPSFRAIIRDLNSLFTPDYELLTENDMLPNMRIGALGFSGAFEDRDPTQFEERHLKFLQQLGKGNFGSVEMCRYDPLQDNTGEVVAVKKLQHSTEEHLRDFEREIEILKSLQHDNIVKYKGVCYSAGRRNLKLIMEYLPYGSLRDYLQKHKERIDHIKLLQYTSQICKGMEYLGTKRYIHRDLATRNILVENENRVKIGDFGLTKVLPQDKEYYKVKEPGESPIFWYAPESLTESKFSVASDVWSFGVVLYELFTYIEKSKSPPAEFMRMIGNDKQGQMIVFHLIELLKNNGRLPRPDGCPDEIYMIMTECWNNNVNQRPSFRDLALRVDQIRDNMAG
Non-receptor tyrosine-protein kinase TYK2, sequence (P29597 whole entry): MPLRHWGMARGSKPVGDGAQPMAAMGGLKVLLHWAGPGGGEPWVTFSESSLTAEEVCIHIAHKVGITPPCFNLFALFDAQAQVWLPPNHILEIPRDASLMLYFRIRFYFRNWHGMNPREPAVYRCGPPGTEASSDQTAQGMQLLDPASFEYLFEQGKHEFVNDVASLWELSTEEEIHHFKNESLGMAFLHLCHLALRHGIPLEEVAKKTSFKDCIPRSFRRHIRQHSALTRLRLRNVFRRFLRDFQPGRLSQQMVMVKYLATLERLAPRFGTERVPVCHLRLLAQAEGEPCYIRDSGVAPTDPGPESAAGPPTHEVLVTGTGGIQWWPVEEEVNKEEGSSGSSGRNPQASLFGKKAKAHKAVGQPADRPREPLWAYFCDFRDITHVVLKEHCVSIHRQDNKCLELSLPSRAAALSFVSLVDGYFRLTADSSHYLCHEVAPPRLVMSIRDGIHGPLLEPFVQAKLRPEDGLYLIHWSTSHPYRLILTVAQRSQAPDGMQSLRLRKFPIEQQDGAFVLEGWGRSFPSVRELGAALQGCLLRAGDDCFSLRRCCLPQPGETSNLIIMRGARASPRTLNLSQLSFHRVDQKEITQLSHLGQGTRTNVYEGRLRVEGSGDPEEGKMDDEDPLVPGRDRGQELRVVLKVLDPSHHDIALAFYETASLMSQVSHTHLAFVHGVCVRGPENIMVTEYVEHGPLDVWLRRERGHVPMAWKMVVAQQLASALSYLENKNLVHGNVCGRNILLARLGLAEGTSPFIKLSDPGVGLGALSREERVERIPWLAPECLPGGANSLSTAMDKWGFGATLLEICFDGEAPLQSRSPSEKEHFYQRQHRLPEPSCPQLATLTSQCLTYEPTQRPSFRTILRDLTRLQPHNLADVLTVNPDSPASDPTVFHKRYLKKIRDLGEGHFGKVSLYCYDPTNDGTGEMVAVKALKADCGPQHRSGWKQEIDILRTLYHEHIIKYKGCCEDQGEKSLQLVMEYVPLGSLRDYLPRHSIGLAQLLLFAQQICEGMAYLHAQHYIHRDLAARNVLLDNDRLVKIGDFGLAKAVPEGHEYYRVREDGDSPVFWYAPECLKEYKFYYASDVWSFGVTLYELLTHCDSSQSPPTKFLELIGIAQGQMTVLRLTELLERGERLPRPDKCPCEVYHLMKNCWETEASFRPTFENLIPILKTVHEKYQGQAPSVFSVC
Voltage-gated inwardly rectifying potassium channel KCNH2, sequence (Q12809 whole entry): as the sequence (Q12809 whole entry) above

For `Cc1cnc(Nc2ccccc2)nc1-c1cc2c(o1)CCN(C(=O)CC#N)C2`, which IC50 [1] is on record?
Its IC50 is 2.9 nM.

What about the IC50 [2] of the same compound?
The IC50 was 94.7 nM.

For `Cc1cnc(Nc2ccc(-n3ccnc3)cc2)nc1-c1cc2c(o1)CCN(S(C)(=O)=O)C2`, which IC50 [1] is on record?
The IC50 was 10.8 nM.

What about the IC50 [2] of the same compound?
Its IC50 is 91.3 nM.

For `Cc1cnc(Nc2ccc(N3CCOCC3)cc2)nc1-c1cc2c(o1)CCN(C(=O)C(C)C)C2`, which IC50 [1] is on record?
The IC50 was 6.4 nM.

What about the IC50 [2] of the same compound?
Its IC50 is 32.4 nM.

What does the source list for `Cc1cnc(Nc2ccc([N+](=O)[O-])cc2)nc1-c1cc2c(o1)CCN(C(=O)CC#N)C2`?
IC50 [1]: 14.2 nM; IC50 [2]: 275 nM

Which IC50 [1] does the source give for `Cc1cnc(Nc2cc(F)c(N3CCOCC3)c(F)c2)nc1-c1cc2c(o1)CCN(S(C)(=O)=O)C2` here?
The IC50 was 3.7 nM.

And the IC50 [2]?
Its IC50 is 195 nM.

What does the source list for `Cc1cnc(Nc2ccc(N3CCN(C)CC3)cc2)nc1-c1cc2c(o1)CCN(C(=O)CC#N)C2`?
IC50 [1]: 1.6 nM; IC50 [2]: 33.7 nM

For `Cc1cnc(Nc2ccc(N3CCOCC3)cc2)nc1-c1cc2c(o1)CCN(C(=O)c1cccc(C#N)c1)C2`, which IC50 [1] is on record?
Its IC50 is 35.4 nM.

And the IC50 [2]?
Its IC50 is 552 nM.

For `Cc1cnc(Nc2ccc(F)cc2)nc1-c1cc2c(o1)CCN(C(=O)CC#N)C2`, which IC50 [2] is on record?
The IC50 was 95.7 nM.

Which bioavailability [3] does the source give for `Cc1cnc(Nc2ccc(N3CCOCC3)cc2)nc1-c1cc2c(o1)CCN(C(=O)CC#N)C2` here?
The bioavailability was 54.8%.

What about the IC50 [4] of the same compound?
Its IC50 is 5.1 nM.

And the CL/F (in vivo [5])?
Its CL/F is 71.8 mL/min/kg.

What about the inhibition at 0.3 µM (hERG (KCNH2) [6]) of the same compound?
Its inhibition at 0.3 µM is 1.9%.

What about the Vz [7] of the same compound?
The Vz was 17.82 L/kg.

And the inhibition at 30 µM (hERG (KCNH2) [8])?
Its inhibition at 30 µM is 16.4%.

What about the AUC at 240 h (in vivo [9]) of the same compound?
Its AUC at 240 h is 1490 ng·h/mL.

What about the MRT last (in vivo [10]) of the same compound?
Its MRT last is 3.49 h.

And the AUC(0-t) (in vivo [11])?
The AUC(0-t) was 2190 ng·h/mL.

What about the inhibition at 3 µM (hERG (KCNH2) [12]) of the same compound?
The inhibition at 3 µM was 11.2%.

What about the half-life [13] of the same compound?
The half-life was 0.55 h.

And the Vd [14]?
The Vd was 2 L/kg.

And the Activity (Rattus norvegicus [15])?
Its Activity is 113.2%.

And the AUC(0-t) [16]?
Its AUC(0-t) is 1000 ng·h/mL.

What about the IC50 [17] of the same compound?
Its IC50 is 3 nM.

What about the IC50 [1] of the same compound?
Its IC50 is 0.5 to 0.7 nM.

And the half-life (in vivo [18])?
Its half-life is 2.91 h.

What about the Cmax (in vivo [19]) of the same compound?
The Cmax was 540 ng/mL.

What about the Activity (Rattus norvegicus [20]) of the same compound?
Its Activity is 14.1%.

And the IC50 [21]?
Its IC50 is > 30000 nM.

And the Cmax [22]?
The Cmax was 2340 ng/mL.

And the MRT last [23]?
The MRT last was 0.5 h.

And the clearance [24]?
The clearance was 42 mL/min/kg.

And the IC50 [2]?
Its IC50 is 7.6 to 13.5 nM.

Which IC50 [1] does the source give for `Cc1cnc(Nc2ccc(F)cc2)nc1-c1cc2c(o1)CCN(S(C)(=O)=O)C2` here?
Its IC50 is 12.1 nM.

What about the IC50 [2] of the same compound?
The IC50 was 5080 nM.

Which IC50 [1] does the source give for `COc1cc(Nc2ncc(C)c(-c3cc4c(o3)CCN(C(=O)CC#N)C4)n2)cc(OC)c1OC` here?
The IC50 was 1.6 nM.

What about the IC50 [2] of the same compound?
The IC50 was 12 nM.

With `Cc1cnc(Nc2ccc(OCCN3CCCC3)cc2)nc1-c1cc2c(o1)CCN(S(C)(=O)=O)C2` as the compound, how does the IC50 [1] read?
Its IC50 is 4.1 nM.

And the IC50 [2]?
Its IC50 is 56.7 nM.

Which IC50 [1] does the source give for `Cc1cnc(Nc2ccc(N3CCOCC3)cc2)nc1-c1cc2c(o1)CCN(C(=O)c1ccc(C#N)cc1)C2` here?
Its IC50 is 28.8 nM.

And the IC50 [2]?
Its IC50 is 431 nM.

What does the source list for `CCC(=O)N1CCc2oc(-c3nc(Nc4ccc(N5CCOCC5)cc4)ncc3C)cc2C1`?
IC50 [1]: 5.8 nM; IC50 [2]: 112 nM

For `Cc1cnc(Nc2ccc(OCCN3CCCC3)cc2)nc1-c1cc2c(o1)CCN(C(=O)CC#N)C2`, which IC50 [1] is on record?
The IC50 was 9.6 nM.

And the IC50 [2]?
The IC50 was 52 nM.

Which IC50 [1] does the source give for `Cc1cnc(Nc2cccc(N3CCN(C)CC3)c2)nc1-c1cc2c(o1)CCN(S(C)(=O)=O)C2` here?
The IC50 was 112 nM.

And the IC50 [2]?
The IC50 was 751 nM.

Which results are given for `Cc1cnc(Nc2ccccc2)nc1-c1cc2c(o1)CCN(S(C)(=O)=O)C2`?
IC50 [1]: 2.7 nM; IC50 [2]: 153 nM

For `Cc1cnc(Nc2cc(F)c(N3CCOCC3)c(F)c2)nc1-c1cc2c(o1)CCN(C(=O)CC#N)C2`, which IC50 [1] is on record?
Its IC50 is 4.2 nM.

And the IC50 [2]?
The IC50 was 88.1 nM.
